Experimental data from publication PMC11695783 (Frontiers in Pharmacology, 2024).
“And” between values parts separate entries of the source, which are not always exact repeats. Equal entries are not always repeated.

Assays:
Mycoplasma pneumoniae = assay: In vivo pharmacodynamic study: Mycoplasma pneumoniae loads in BALF of infected mice; parameters: species or system BALB/c mice; details: for MPcounts in BALF (AV): group AV; for MPcounts in BALF: individual mice
Experimental: (§1) Adult BALB/c mice (20–22 g) were divided into a control group, a positive group, and compound 16C groups at low (20 mg/kg), medium (40 mg/kg), and high-dose (80 mg/kg) levels and oral and intramuscular tiamulin treatment groups (40 mg/kg). We formulated the above dose range based on the dose at which tiamulin was approved for injection (10–20 mg/kg) and the dose previously reported (45 mg/kg) ([EMA, 1999]; [Xiao et al., 2016]). In summary, we selected similar doses for compound 16C in vivo study. 40 mg/kg was used as an intermediate value, one-half of it as a low dose, and two times of it as a high dose. To prepare the challenge solution, logarithmic phase culture suspensions were centrifuged at 1700 g for 10 min, and the pellets were suspended in sterile PBS to obtain 1 × 10^9 CFU/mL. Before the challenge, mice were anesthetized with tribromoethanol (250 mg/kg, IP). Mice in the control groups were intratracheally inoculated with sterile PBS, whereas mice in the other groups were intratracheally challenged with 50 μL (1 × 10^9 CFU/mL) M. pneumoniae suspension once a day for 3 days. Compound 16C and tiamulin (tiamulin-IM group) dissolved using the method mentioned in pharmacokinetic studies, and the tiamulin fumarate soluble powder was dissolved in ddH2O for oral administration. After the final challenge, antibiotics were administered at low, medium, and high-dose levels (see above) at 10 a.m. and 10 p.m. daily for 4 consecutive days. Normal saline containing 5% DMSO and 5% Tween-80 was administered as control and positive groups by thigh intramuscular injection. To compare the efficacy of compound 16C and tiamulin under the same route of administration, we used the original tiamulin for intramuscular administration in the same formulation. On the other hand, tiamulin fumarate soluble powder, approved for oral administration to treat animal mycoplasma diseases in China, was administered to mice by gavage. Based on a clinical study of lefamulin in community-acquired bacterial pneumonia (CABP), subjects were administered twice a day and the 96 ± 24 h of starting treatment was an essential point for early clinical response (ECR) ([Paukner et al., 2022]). We therefore stopped treatment at 96 h and sampled at 192 h to explore whether the disease worsened after cessation of treatment. Bronchoalveolar lavage fluid (BALF) and lungs were collected at 0, 96, 192 h (Samples of 0 h were collected before starting treatment, and mice were fed ad libitum without drug treatment during 96–192 h) after the first dose, BALF for cytokine and cytological analysis and lung for histopathological evaluation.
(§2) Bronchoalveolar lavage was performed according to a standardized method ([Van Hoecke et al., 2017]). BALF was obtained following infusion of 0.5 mL PBS via tracheal cannulation into the lung twice (total 1 mL), and 200 µL was used for mycoplasma counts. The remaining BALF was centrifuged at 300 g for 10 min to separate the debris. The supernatants were stored at −80°C, and the debris was resuspended in the same volume of PBS containing red blood cell lysis buffer. A hemocytometer was used to count total cell numbers in BALF, and cell smears (Diff-Quik staining) were prepared to calculate the percentages of neutrophils, macrophages, and lymphocytes. IFN-γ, TNF-α, and CXCL1 levels in BALF samples were assessed using commercial ELISA kits using guidelines recommended by the manufacturer (Elabscience, Wuhan, China). Parallel data for each experimental group at each time point were obtained from six different mice.

IFN-γ = IFN-γ in BALF of M. pneumoniae-infected mice (ELISA); assay type: in vivo, BALB/c mice; details: for IFN-γ in BALF (AV): group AV; for IFN-γ in BALF: individual mice
Experimental: as §1, §2

[1] = test system: Mycoplasma pneumoniae-infected mice (lung tissue); assay: Histopathological assessment of lung tissue (HPS, response and recovery rates) in M. pneumoniae-infected mice; assay type: in vivo, BALB/c mice; parameters: HPS value (mean) / HPS: scale not given here; details: for HPS: individual mice
Experimental: as §1
Lung tissues were collected at 0, 96, and 192 h following drug administration. Lungs were collected from 6 mice in each group at 96 h and 13–15 mice in each group at 192 h. In addition, the lungs of 8 untreated infected mice were taken at 0 h as initial controls. Lung tissues were fixed in 4% paraformaldehyde, and whole-mount sections of paraffin-embedded lungs were stained with hematoxylin and eosin (H&E). The histopathologic score (HPS) was determined according to published protocols by a single pathologist who was unaware of the treatment status and groups of the animals ([Cimolai et al., 1992]). The HPS was based on individual grading of peribronchiolar/bronchial infiltrate, bronchiolar/bronchial luminal exudate, perivascular infiltrate, and parenchymal pneumoniae.

[2] = compound 16C 20 mg/kg IM, 192 h
[3] = compound 16C 40 mg/kg IM, 192 h
[4] = compound 16C 80 mg/kg IM, 192 h
[5] = M. pneumoniae-infected mice, 20mg/kg, intramuscular, n=13-15
[6] = M. pneumoniae-infected mice, 40mg/kg, intramuscular, n=13-15
[7] = M. pneumoniae-infected mice, 80mg/kg, intramuscular, n=13-15
[8] = compound 16C 40 mg/kg IM, from HPS at 192 h
[9] = compound 16C 80 mg/kg IM, from HPS at 192 h

C=CC1(C)CC(OC(=O)CSc2ccc(NC(=O)Cc3ccc([N+](=O)[O-])cc3)cc2)C2(C)C(C)CCC3(CCC(=O)C32)C(C)C1O (centres unmarked) [compound 16C, 22–((4-((4-nitrophenyl)acetamido)phenyl)thio)deoxypleuromutilin]
microbial reduction in BALF (Mycoplasma pneumoniae; compound 16C 20 mg/kg IM twice daily 4 d, 96 h): 1.40 log10 CFU/mL | MPcounts in BALF (AV) (Mycoplasma pneumoniae; compound 16C 20 mg/kg IM, 96 h): 4.601 Log10CFU/mL | MPcounts in BALF (Mycoplasma pneumoniae; compound 16C 20 mg/kg IM, 96 h): 5.04 Log10CFU/mL and 4.682 Log10CFU/mL and 3.8451 Log10CFU/mL and 4.709 Log10CFU/mL and 4.293 Log10CFU/mL and 5.039 Log10CFU/mL | MPcounts in BALF (AV) (Mycoplasma pneumoniae; [2]): 3.598 Log10CFU/mL | MPcounts in BALF (Mycoplasma pneumoniae; [2]): 3.747 Log10CFU/mL and 3.757 Log10CFU/mL and 3.482 Log10CFU/mL and 3.599 Log10CFU/mL and 3.64 Log10CFU/mL and 3.366 Log10CFU/mL | microbial reduction in BALF (Mycoplasma pneumoniae; compound 16C 40 mg/kg IM twice daily 4 d, 96 h): 2.02 log10 CFU/mL | MPcounts in BALF (AV) (Mycoplasma pneumoniae; compound 16C 40 mg/kg IM, 96 h): 3.896 Log10CFU/mL | MPcounts in BALF (Mycoplasma pneumoniae; compound 16C 40 mg/kg IM, 96 h): 4.213 Log10CFU/mL and 4.174 Log10CFU/mL and 3.6574 Log10CFU/mL and 4.285 Log10CFU/mL and 3.708 Log10CFU/mL and 3.341 Log10CFU/mL | MPcounts in BALF (AV) (Mycoplasma pneumoniae; [3]): 3.662 Log10CFU/mL | MPcounts in BALF (Mycoplasma pneumoniae; [3]): 3.675 Log10CFU/mL and 3.607 Log10CFU/mL and 3.633 Log10CFU/mL and 3.784 Log10CFU/mL and 3.322 Log10CFU/mL and 3.954 Log10CFU/mL | microbial reduction in BALF (Mycoplasma pneumoniae; compound 16C 80 mg/kg IM twice daily 4 d, 96 h): 2.68 log10 CFU/mL | microbial reduction in BALF (Mycoplasma pneumoniae; compound 16C 80 mg/kg IM twice daily 4 d, 192 h): 2.65 log10 CFU/mL | MPcounts in BALF (AV) (Mycoplasma pneumoniae; compound 16C 80 mg/kg IM, 96 h): 3.141 Log10CFU/mL | MPcounts in BALF (Mycoplasma pneumoniae; compound 16C 80 mg/kg IM, 96 h): 3.314 Log10CFU/mL and 3.255 Log10CFU/mL and 3.244 Log10CFU/mL and 3.15 Log10CFU/mL and 2.656 Log10CFU/mL and 3.223 Log10CFU/mL | MPcounts in BALF (AV) (Mycoplasma pneumoniae; [4]): 3.173 Log10CFU/mL | MPcounts in BALF (Mycoplasma pneumoniae; [4]): 3.05 Log10CFU/mL and 3.185 Log10CFU/mL and 3.04 Log10CFU/mL and 3.438 Log10CFU/mL and 3.295 Log10CFU/mL and 3.0308 Log10CFU/mL | IFN-γ in BALF (AV) (IFN-γ; compound 16C 20 mg/kg IM, 96 h): 61.9115 pg/mL | IFN-γ in BALF (IFN-γ; compound 16C 20 mg/kg IM, 96 h): 66.1116 pg/mL and 70.7764 pg/mL and 60.3497 pg/mL and 48.4263 pg/mL and 63.8937 pg/mL | IFN-γ in BALF (AV) (IFN-γ; [2]): 53.7268 pg/mL | IFN-γ in BALF (IFN-γ; [2]): 69.6648 pg/mL and 70.9988 pg/mL and 47.7654 pg/mL and 32.8171 pg/mL and 65.2242 pg/mL and 35.8907 pg/mL | IFN-γ in BALF (AV) (IFN-γ; compound 16C 40 mg/kg IM, 96 h): 31.4597 pg/mL | IFN-γ in BALF (IFN-γ; compound 16C 40 mg/kg IM, 96 h): 36.9995 pg/mL and 36.109 pg/mL and 18.2065 pg/mL and 31.1186 pg/mL and 39.6709 pg/mL and 26.6536 pg/mL | IFN-γ in BALF (AV) (IFN-γ; [3]): 43.7114 pg/mL | IFN-γ in BALF (IFN-γ; [3]): 35.5746 pg/mL and 45.5493 pg/mL and 40.3832 pg/mL and 54.2951 pg/mL and 42.5204 pg/mL and 43.9456 pg/mL | IFN-γ in BALF (AV) (IFN-γ; compound 16C 80 mg/kg IM, 96 h): 33.085 pg/mL | IFN-γ in BALF (IFN-γ; compound 16C 80 mg/kg IM, 96 h): 42.8939 pg/mL and 46.612 pg/mL and 43.7193 pg/mL and 17.0898 pg/mL and 29.6102 pg/mL and 18.5846 pg/mL | IFN-γ in BALF (AV) (IFN-γ; [4]): 30.1626 pg/mL | IFN-γ in BALF (IFN-γ; [4]): 41.5193 pg/mL and 31.3845 pg/mL and 29.0646 pg/mL and 27.0198 pg/mL and 28.7918 pg/mL and 26.4748 pg/mL and 26.8835 pg/mL | Recovery [1, 5]: 20.00% | Response [1, 5]: 93.33% | Recovery [1, 6]: 35.7% | Response [1, 6]: 100% | Recovery [1, 7]: 50% | Response [1, 7]: 100% | HPS value (mean) ([1]; compound 16C 20 mg/kg IM, 96 h): 1.08 | HPS ([1]; compound 16C 20 mg/kg IM, 96 h): 0.5 and 1 and 1.5 | HPS value (mean) [1, 2]: 1 | HPS [1, 2]: 1 and 0 and 4 and 0.5 and 1.5 | Recovery ([1]; compound 16C 20 mg/kg IM, from HPS at 192 h (HPS reduced to 0)): 20.00% | Recovery ([1]; compound 16C 20 mg/kg IM, from HPS at 192 h (HPS reduced to 0), listed as Compound16C): 20% | Response ([1]; compound 16C 20 mg/kg IM, from HPS at 192 h, n = 13–15): 93.33% | HPS value (mean) ([1]; compound 16C 40 mg/kg IM, 96 h): 1 | HPS ([1]; compound 16C 40 mg/kg IM, 96 h): 1 and 1.5 and 0 | HPS value (mean) [1, 3]: 0.46 | HPS [1, 3]: 0.5 and 0 and 2 and 1 | Recovery [1, 8]: 35.7% | Response [1, 8]: 100% | HPS value (mean) ([1]; compound 16C 80 mg/kg IM, 96 h): 0.75 | HPS ([1]; compound 16C 80 mg/kg IM, 96 h): 0.5 and 0 and 1 | HPS value (mean) [1, 4]: 0.43 | HPS [1, 4]: 0 and 0.5 and 1 and 1.5 | Recovery [1, 9]: 50% | Response [1, 9]: 100%
